# From US20130287890A1, “INHIBITOR OF THE PRODUCTION OF ADVANCED GLYCATION END PRODUCTS” (UENO FINE CHEMICALS INDUSTRY, LTD., priority 2012, published 2013)
# Assays:
# human RAGE [1] = target: T1, human RAGE (Homo sapiens, UniProt Q15109); assay: RAGE antagonist activity of reaction samples (37° C., 42 days) mixed with AGE-BSA, NF-κB luciferase assay in C6 glioma cells; assay type: cell-based, rat C6 glioma cells expressing human RAGE
# T1 construct: human RAGE plasmid (including full-length human RAGE cDNA); expressed in transfected cells; host or cells: C6 glioma cells carrying pNF-κB-Luc plasmid and human RAGE plasmid
# Procedure: (§1) Amino acid, carbohydrates and a phosphate buffer solution were charged in a 50 mL polypropylene centrifuge tube in each amount shown in Table 10, followed by sealing and stirring, and then the mixture was reacted in an incubator at 37° C. for 42 days. Next, the reactant was filtered through a 0.2 μm filter and the obtained filtrate was used as a sample. Amino acid and carbohydrates used are as follows:
# Using Luciferase Assay System (manufactured by Promega Corporation), evaluation of RAGE antagonist activity was performed. (Day 1) According to the methods disclosed in Diabetes, 2006, vol. 55, pp. 2510-2522, C6 glioma cells into which pNF-κB-Luc plasmid (manufactured by Stratagene Corporation) and human RAGE plasmid (including full-length human RAGE cDNA) have been introduced were seeded at 100 μL/well into a 96-well plate and cultured in a CO2 incubator until the cells were confluent. For the culture, 10% FBS/DMEM medium was used. (Day 2) The medium was removed, and after wells were washed with 300 μL of serum-free DMEM medium, 100 μL of 0.1% FBS/DMEM medium was slowly added. Then, the medium was incubated overnight in a CO2 incubator. (Day 3) The sample was diluted using the medium, and 50 μL of the diluted sample, AGE-BSA in which AGE was formed with glyceraldehydes (50 μg/mL) as a control, and the mixture of diluted sample and AGE-BSA were added to wells. After incubation in a CO2 incubator for 4 hours, the medium was removed and wells were washed 2 times with 300 μL of PBS (−). Then, 25 μL of 1× lysis buffer was added on ice. After the plate was shaken for 15 seconds, 20 μL of lysate was charged in a new white plate. Further 100 μL of a luciferase assay reagent was added, and a […] was measured by a luminometer. Using 5 μL of lysate, quantitative determination of protein was also performed.
# (§2) Biological proteins, carbohydrates and a phosphate buffer solution are charged in a 50 mL polypropylene centrifuge tube in each amount shown in Table 12, followed by sealing and stirring, and then the mixture was reacted in an incubator at 37° C. for 42 days. Next, the reactant was fractionated by centrifugation at 3,000 rpm for 3 hours using an ultrafiltration unit (VIVA SPIN 20, manufactured by Sartorius Corporation). The obtained low molecular weight fraction was used as a sample for determination of 3-DG, while the obtained high molecular weight fraction was used as a sample for the determination of fluorescent AGEs, pentosidine, CML, RAGE agonist activity and RAGE antagonist activity. Biological proteins and carbohydrates used are as follows:
# (§3) In the same manner as in Test Example 4, except that the low molecular weight fraction prepared as mentioned above was used as a sample, quantitative determination of 3-DG was performed. In the same manner as in Test Example 4, except that the high molecular weight fraction was filtered through a 0.2 μm filter and the filtrate was used as a sample, fluorescent AGEs, pentosidine, CML, RAGE agonist activity and RAGE antagonist activity were evaluated.
# (§4) Collagen, carbohydrates and a phosphate buffer solution were charged in a 50 mL polypropylene centrifuge tube in each amount shown in Table 14, followed by sealing and stirring, and then the mixture was reacted in an incubator at 37° C. for 42 days. Next, the reactant was fractionated by centrifugation at 3,000 rpm for 3 hours using an ultrafiltration unit (VIVA SPIN 20, manufactured by Sartorius Corporation). The obtained low molecular weight fraction was used as a sample for determination of 3-DG. Meanwhile, 0.4 g of a high molecular weight fraction and 8 mL of 6N hydrochloric acid were charged in an ampule and the air in the ampule was replaced with nitrogen, and then hydrolysis was performed at 110° C. for 16 hours in a heat block. After reaction, 8 mL of 5N sodium hydroxide was added, and pH was adjusted using 1N hydrochloric acid and 1N sodium hydroxide to make pH within a range of 7.2 to 7.6. […]
# human RAGE [2] = target: T1, human RAGE; assay: RAGE agonist activity of reaction samples (37° C., 42 days), NF-κB luciferase assay in C6 glioma cells; assay type: cell-based, rat
# Procedure: as §1
# Using Luciferase Assay System (manufactured by Promega Corporation), evaluation of RAGE agonist activity was performed. (Day 1) According to the methods disclosed in Diabetes, 2006, vol. 55, pp. 2510-2522, C6 glioma cells into which pNF-κB-Luc plasmid (manufactured by Stratagene Corporation) and human RAGE plasmid (including full-length human RAGE cDNA) have been introduced were seeded at 100 μL/well into a 96-well plate and cultured in a CO2 incubator until the cells were confluent. For the culture, 10% FBS/DMEM medium was used. (Day 2) The medium was removed, and after wells were washed with 300 μL of serum-free DMEM medium, 100 μL of 0.1% FBS/DMEM medium was slowly added. Then, the medium was incubated overnight in a CO2 incubator. (Day 3) The sample was diluted using the medium, and 50 μL of the diluted sample was added to each well. AGE-BSA in which AGE was formed with glyceraldehydes (50 μg/mL) was added to a control well. After incubation in a CO2 incubator for 4 hours, the medium was removed and wells were washed 2 times with 300 μL of PBS (−). Then, 25 μL of 1× lysis buffer was added on ice. After the plate was shaken for 15 seconds, 20 μL of lysate was charged in a new white plate. Further 100 μL of a luciferase assay reagent was added, and a […] was measured by a luminometer. Using 5 μl of lysate, quantitative determination of protein was also performed.
# as §2, §3
# as §4, with “7.6. Then, the solution was filtered through a 0.2 μm filter.” for “7.6.”
# [3] = Test Example 4, amino acid + carbohydrate, mixture of sample and AGE-BSA, amount of protein 100 μg/mL, relative to control (AGE-BSA) = 1
# [4] = Test Example 5, bovine serum albumin + carbohydrate, mixture of sample and AGE-BSA, protein 100 μg/mL, relative to control (AGE-BSA) = 1
# [5] = Test Example 5, human serum albumin + carbohydrate, mixture of sample and AGE-BSA, protein 100 μg/mL, relative to control (AGE-BSA) = 1
# [6] = Test Example 5, γ-globulin + carbohydrate, mixture of sample and AGE-BSA, protein 10 μg/mL, relative to control (AGE-BSA) = 1
# [7] = Test Example 6, collagen + carbohydrate, mixture of sample and AGE-BSA, protein 10 μg/mL, relative to control (AGE-BSA) = 1
# [8] = Test Example 4, amino acid + carbohydrate, amount of protein 100 μg/mL, relative to control (AGE-BSA) = 1
# [9] = Test Example 5, bovine serum albumin + carbohydrate, protein 100 μg/mL, relative to control (AGE-BSA) = 1
# [10] = Test Example 5, human serum albumin + carbohydrate, protein 100 μg/mL, relative to control (AGE-BSA) = 1
# [11] = Test Example 5, γ-globulin + carbohydrate, protein 10 μg/mL, relative to control (AGE-BSA) = 1
# [12] = Test Example 6, collagen + carbohydrate, protein 10 μg/mL, relative to control (AGE-BSA) = 1
# [13] = Test Example 4, amino acid, compared with the test section 2 containing fructose
# [14] = Test Example 5, bovine serum albumin, human serum albumin, γ-globulin, compared with sections containing glucose
# [15] = Test Example 6, collagen, compared with sections containing glucose and fructose
# T1 sequence (Q15109 23-404): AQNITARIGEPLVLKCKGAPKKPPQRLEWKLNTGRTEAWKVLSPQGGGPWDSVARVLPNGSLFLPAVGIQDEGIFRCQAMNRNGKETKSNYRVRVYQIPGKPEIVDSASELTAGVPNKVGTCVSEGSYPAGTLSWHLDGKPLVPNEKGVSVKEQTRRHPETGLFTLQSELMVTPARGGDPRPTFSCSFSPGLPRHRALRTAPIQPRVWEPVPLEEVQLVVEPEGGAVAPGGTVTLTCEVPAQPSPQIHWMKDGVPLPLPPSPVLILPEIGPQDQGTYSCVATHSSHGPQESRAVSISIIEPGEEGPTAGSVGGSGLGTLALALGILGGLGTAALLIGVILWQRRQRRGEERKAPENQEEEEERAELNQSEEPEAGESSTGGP
RAGE antagonist activity (human RAGE [1]; [3]),RAGE antagonist activity (human RAGE [1]; [4]),RAGE antagonist activity (human RAGE [1]; [5]),RAGE antagonist activity (human RAGE [1]; [6]),RAGE antagonist activity (human RAGE [1]; [7]),RAGE agonist activity (human RAGE [2]; [8]),RAGE agonist activity (human RAGE [2]; [9]),RAGE agonist activity (human RAGE [2]; [10]),RAGE agonist activity (human RAGE [2]; [11]),RAGE agonist activity (human RAGE [2]; [12]),RAGE antagonist activity (human RAGE [1]; [13]),RAGE antagonist activity (human RAGE [1]; [14]),"RAGE antagonist activity (human RAGE [1]; Test Example 5, test sections 3 and 6 (bovine serum albumin, human serum albumin), compared with sections containing fructose)",RAGE antagonist activity (human RAGE [1]; [15]),RAGE agonist activity (human RAGE [2]; [13]),"RAGE agonist activity (human RAGE [2]; Test Example 5, bovine serum albumin, human serum albumin, γ-globulin, compared with sections containing fructose)",RAGE agonist activity (human RAGE [2]; [14]),RAGE agonist activity (human RAGE [2]; [15]),Structure (SMILES)
0.56,1.08,1.20,1.07,2.85,0.06,0.37,0.01,0.06,0.45,,,,,,,,,O=C[C@H](O)[C@@H](O)[C@H](O)[C@H](O)CO [Glucose]
0.66,1.08,1.01,0.90,1.22,0.07,0.24,0.02,0.06,0.27,decreased,decreased,decreased,decreased,decreased,decreased,decreased,decreased,OC[C@@H](O)[C@@H](O)[C@H](O)[C@@H](O)CO [Sorbitol]

Structure (SMILES),RAGE antagonist activity (human RAGE [1]; [3]),RAGE antagonist activity (human RAGE [1]; [4]),RAGE antagonist activity (human RAGE [1]; [5]),RAGE antagonist activity (human RAGE [1]; [6]),RAGE antagonist activity (human RAGE [1]; [7]),RAGE agonist activity (human RAGE [2]; [8]),RAGE agonist activity (human RAGE [2]; [9]),RAGE agonist activity (human RAGE [2]; [10]),RAGE agonist activity (human RAGE [2]; [11]),RAGE agonist activity (human RAGE [2]; [12]),RAGE antagonist activity (human RAGE [1]; [13]),RAGE antagonist activity (human RAGE [1]; [14]),"RAGE antagonist activity (human RAGE [1]; Test Example 5, test sections 3 and 6 (bovine serum albumin, human serum albumin), compared with sections containing fructose)",RAGE antagonist activity (human RAGE [1]; [15]),RAGE agonist activity (human RAGE [2]; [13]),"RAGE agonist activity (human RAGE [2]; Test Example 5, bovine serum albumin, human serum albumin, γ-globulin, compared with sections containing fructose)",RAGE agonist activity (human RAGE [2]; [14]),RAGE agonist activity (human RAGE [2]; [15])
O=C(CO)[C@@H](O)[C@H](O)[C@H](O)CO [Fructose],0.70,1.15,1.33,1.08,2.49,0.08,0.33,0.02,0.04,0.58,,,,,,,,
